# Patent publication US20060037085A1, “Animal model for fetal alcohol syndrome and methods of treatment” (priority 2004, published 2006)
# “And” between values parts separate entries of the source, which are not always exact repeats. Equal values may be shown once. Read-outs that look alike come from different tables or passages of the source.
# Legend:
# [1] = test system: Xenopus laevis tadpole brain; assay: Histological analysis of brain injury (coronal brain sections of tadpoles); conditions: tadpoles treated with alcohol
# Excerpt: Histological analysis of brain injury. Embryos were fixed in 2% paraformaldehyde, dehydrated, embedded in paraffin. The embryos were sectioned coronally through the head and stained with hematoxylin and eosin.
# The EF-1α transcript was detected as an internal control for equal RNA load.
# [2] = test system: NF-κB; assay: NF-κB reporter assay (pLuc-NF-κB) in whole embryos; type: in vivo, Xenopus laevis; conditions: 0.6% ethanol, recorded at stage 22
# Method: NF-κB reporter assay. NF-κB luciferase reporter plasmid (pLuc-NF-κB) containing IL-6 promoter region with four repeats of NF-κB binding sites was used to measure NF-κB-mediated transcriptional activity (Li, 1997). Embryos at the two-cell stage were injected with pLuc-NF-κB, treated as indicated in the text, harvested, and lysed at stage 22. Protein concentration was determined. The luciferase activities were measured and calculated as relative luciferase activity per mg of protein.
# In this embodiment, NF-κB activity was measured in the whole embryo by the reporter construct pLuc-NF-κB, which was injected into embryos at 2-cell stage.
# [3] = test system: Pax6, Otx2, Sox2, Sox3, NCAM, Vent1; assay: RT-PCR of neural markers (animal caps or embryos); type: cell-based, Xenopus laevis; conditions: animal caps
# Excerpt: RT-PCR Animal caps were dissected from embryos at stage 8.5 and cultured in 67% Leibovitz's L-15 medium, pH 7.5 in the presence or absence of varied concentration of alcohol until stage 22. Total RNA was extracted from cultured animal caps with Trizol reagent (Invitrogen). Primer sets and PCR conditions for NCAM and Pax6 have been described in our previous reports (Peng, Neurobiol. Dis., 2004; Peng, J. Mol. Biol., 2004). PCR products were subject to electrophoresis on TBE gel and visualized by ethidium bromide staining.
# (§1) Animal cap explant assay. […] Total RNA was extracted from animal caps or whole embryos using TRIZOL reagent (Invitrogen). The total RNA was reverse transcribed using the Superscript system (Invitrogen), and the first strand cDNA of the target gene amplified by PCR.
# The Xenopus animal cap is composed of pluripotent cells that can be induced to form neural, mesodermal, or epidermal tissue, and is a useful tissue to assess the activity of various factors on neural development. Animal caps were treated with varied concentrations of alcohol as indicated.
# [4] = test system: alcohol-induced ROS production; assay: ROS measurement (hydrogen peroxide level in embryos); type: in vivo, Xenopus laevis; conditions: 0.6% alcohol, stage 13 to 22, harvested at stage 22
# Method: (A) Embryos were pretreated with or without vitamin C two hours before alcohol treatment (0.6%, 12 h, from stage 13 to 22). The embryos were harvested at stage 22 and the hydrogen peroxide level measured by the colorimetric quantitation of hydrogen peroxide method (total hydroperoxides), according to the protocols provided by the manufacturer (BIOXYTECH H202-560 kit, OXIS International, Inc., USA); (B) The NF-κB mediated transcriptional activity was measured using NF-κB luciferase reporter plasmid (pLuc-NF-κB) containing IL-6 promoter region with four repeats of NF-κB binding sites.
# ROS measurement. […] At the end of the experiment, embryos were harvested and total ROS content was determined by the calorimetric quantitation of hydrogen peroxide method (total hydroperoxides), following protocols provided by the manufacturer (BIOXYTECH H202-560 kit, OXIS International, Inc. USA).
# [5] = test system: Xenopus laevis embryos
# Method: Morphological measurements of microcephaly and growth retardation. The tadpoles were then fixed in 2% paraformaldehyde in 30% MMR, and their morphologies examined by light microscopy and photographs were taken at a fixed magnification for body length and head width measurements. The following criteria were recorded: (1) the number of normal/deformed/dead embryos; (2) length of the body measured between the tip of the jaw and the tip of the tail, and (3) width between the eyes measured at the widest level of that of the tadpoles.
# In each experiment, embryos at 2-cell stage were collected and microinjected with the expression plasmid for either catalase (pCMS-CAT), xPax6 (pCS2+xPax6) or xSox2 (pCS2+xSox2) into each of the two blastomeres. After reaching stage 13, the embryos were divided into groups, each consisting of 20 embryos, which were then incubated in 10 ml of 30% Modified Marc's Ringer (MMR) for 12 hours until stage 22 in the presence or absence of varied concentrations of alcohol as indicated. As alcohol is volatile, the experimental media were replaced with fresh media every 4 hours during the course of alcohol treatment to minimize fluctuations in the alcohol concentration. At stage 22, embryos were transferred to 10 ml of 30% MMR without alcohol and allowed to grow until the control group reached the tadpole stage (stage 40 or 45). The tadpoles were then fixed and examined. Each experiment was repeated at least once with reproducible results.
# The injected embryos were allowed to grow to stage 40, and their head size and body length were then compared to that of the control embryos injected with mock plasmid pCS2+ and without alcohol treatment. […] In a separate experiment, 100 pg pCS2+xSox2 or pCS2+ plasmid was injected into animal pole at two-cell stage embryos (n=50) and treated these embryos in 0.6% alcohol under the same conditions as described for Pax6.
# As H2O2 is the major ROS produced by fetal alcohol exposure (Ozer et al., 2000), whether eliminating alcohol-induced H2O2 production can prevent microcephaly was examined by the protective effect of catalase. Human catalase was overexpressed in Xenopus embryos by microinjecting the two-cell stage embryos with 100 pg of catalase expression plasmid pCMS-CAT, and then treating them with or without 0.6% alcohol from stage 13 to 22.
# [6] = test system: Sox17, Pax6 and VegT; assay: Animal cap explant assay, RT-PCR of gut developmental genes; type: cell-based, Xenopus laevis; conditions: alcohol
# Excerpt: as §1
# [7] = test system: Xenopus laevis embryos; remark: listed apart in the source
# Method: Midneurala stage embryos were kept in either the control 10% MSS medium or the same medium supplemented with 0.5% alcohol. The embryos were allowed to grow until the control embryos (no alcohol) reached the tadpole stage (stages 45-46). All the embryos were then fixed and their body length and gut morphologies were recorded.
# Embryos were injected with pCMS, pCMS-mtPRDX5, pCMS-cpPRDX5 or pCMS-Catalase expression plasmid, and then maintained in medium with or without 0.5% alcohol. When the tadpoles of control group reached stages 45-46, all the tadpoles were fixed and their gut developmental stages and body lengths were measured and used for the correlation studies. […] Embryos were injected with pCMS, pCMS-mtPRDX5, or pCMS-Catalase expression plasmid, and then treated with or without alcohol as indicated. The expression of the gut markers was determined by RT-PCR.
# We also examined the correlation between the stage of gut development and body length in each individual tadpole.
# [8] = test system: Xenopus laevis embryos; conditions: for % body length of control / % width between eyes of control / N (normal) tadpoles / def (deformed) tadpoles: Xenopus laevis
# Method: Embryo collection and experimental conditions for Xenopus model. […] In each experiment, embryos at the 2-4 cell stage were collected from the dejellied embryos. […] Each group was then incubated in a plastic petri dish containing 10 ml of 30% MMR, with or without ethanol for 12 hours. Embryos were allowed to develop for approximately 48 hours at room temperature (22° C.), until the control group reached tadpole stage (stage 45). The conditions used for producing eye defects (Peng et al, 2004), delayed gut development (Peng), microencephaly (Peng et al), and growth retardation (Peng) are shown in detail in the attached references.
# Morphological measurements of microcephaly and growth retardation.
# In a specific embodiment, embryos are exposed to at least about 0.4%, 0.5%, 0.6%, 0.7%, 0.8%, 0.9% or 1% alcohol.
# Embryos were exposed to 0.6% ethanol at stage 9, 11, 13, 16, 18, 20, 23, 25 and 40 and were grown until the control “no ethanol” group reached tadpole stage. The morphology of the tadpoles was then examined (Table 2).
# To determine the minimum duration required to produce fetal deformations, embryos at stage 13 were exposed to 0.6% of alcohol for 1, 2, 4, 6, 12, 24, 36 or 48 hours.
# [9] = pCMS-EGFP vector-injected embryos, 0.6% alcohol stage 13 to 22
# [10] = 0.5% alcohol stage 13 to 22, uninjected
# [11] = 0.5% alcohol, pCMS vector-injected embryos
compound,measurement,setting,value
"CCO [Ethanol, ethanol]",size of the forebrain area vs control,[1],reduction in size of the forebrain area
same,NF-κB activity in the embryo (luciferase reporter),[2],increased
same,"Otx2, Sox2, and Sox3 expression",[3]; alcohol 0.1% to 0.6%,less sensitive to alcohol
same,expression of the general ventral marker Vent1,[3]; alcohol,not seriously affected
same,hydrogen peroxide level in the embryos,[4]; listed as alcohol,significantly augmented
same,hydrogen peroxide level in the embryos,[4]; listed as ethanol,significantly increased
same,alive (Total/alive),"[5]; Xenopus laevis, in vivo, 12 h",40/32
same,Body length (% of control),[5]; [9],84 % of control and 83.7 ± 10.1^a % of control
same,Distance between eyes (% of control),[5]; [9],81 % of control and 81.3 ± 14^a % of control
same,frequency of noted microcephaly and growth retardation,"[5]; pCS2+ (mock plasmid) injected group, 0.6% alcohol",52%
same,"expression of Sox17, Pax6 and VegT",[6],suppressed the expression
same,Body length (% no alcohol control),[7]; [10],87 ± 2.7 % no alcohol control
same,Number of embryos in gut developmental stage 43,[7]; [10],8
same,Number of embryos in gut developmental stage 44,[7]; [10],7
same,Number of embryos in gut developmental stage 45,[7]; [10],2
same,Number of embryos in gut developmental stage 46,[7]; [10],0
same,Number of embryos in gut developmental stage 42,"[7]; 0.5% alcohol stage 13 to 22, uninjected, scored when controls reached stages 45-46",3
same,Body length (% no alcohol control),[7]; [11],85 ± 3.1 % no alcohol control
same,Number of embryos in gut developmental stage 42,[7]; [11],3
same,Number of embryos in gut developmental stage 43,[7]; [11],7
same,Number of embryos in gut developmental stage 44,[7]; [11],9
same,Number of embryos in gut developmental stage 45,[7]; [11],1
same,Number of embryos in gut developmental stage 46,[7]; [11],0
same,outcome of sustained alcohol exposure,[7]; sustained exposure of alcohol from stage 13,caused the death of tadpoles at around stages 45-50
same,gut maturation (looping pattern of the tadpole gut),[7]; transient 0.5% alcohol exposure between stages 13-22,significant delay in gut maturation
same,"gut morphology, alcohol-treated vs control groups","[7]; transient alcohol exposure, gut examined at stage 60",no difference
same,dead,"[8]; 0.3% ethanol from stage 11 until control reached stage 45, 15 embryos per group",2
same,dead,"[8]; 0.4% ethanol from stage 11 until control reached stage 45, 15 embryos per group",1
same,dead,"[8]; 0.5% ethanol from stage 11 until control reached stage 45, 15 embryos per group",2
same,"mortality, head and body sizes vs control","[8]; 0.6% alcohol, 12-hour exposure, stage 13-22",increased mortality and marked reduction in head and body sizes
same,dead,"[8]; 0.6% ethanol from stage 11 until control reached stage 45, 15 embryos per group",1
same,dead,"[8]; 0.6% ethanol, initial exposure at Stage 11, until control reached tadpole stage",3
same,dead,"[8]; 0.6% ethanol, initial exposure at Stage 13, until control reached tadpole stage",2
same,dead,"[8]; 0.6% ethanol, initial exposure at Stage 16, until control reached tadpole stage",1
same,dead,"[8]; 0.6% ethanol, initial exposure at Stage 18, until control reached tadpole stage",1
same,dead,"[8]; 0.6% ethanol, initial exposure at Stage 20, until control reached tadpole stage",2
same,dead,"[8]; 0.6% ethanol, initial exposure at Stage 23, until control reached tadpole stage",1
same,dead,"[8]; 1.0% ethanol from stage 11 until control reached stage 45, 15 embryos per group",3
same,dead,"[8]; 1.5% ethanol from stage 11 until control reached stage 45, 15 embryos per group",4
same,dead,"[8]; 2.0% ethanol from stage 11 until control reached stage 45, 15 embryos per group",6
same,% body length of control,"[8]; in vivo, 0.3 %",95 ± 54%
same,% width between eyes of control,"[8]; in vivo, 0.3 %",84 ± 15%
same,N (normal) tadpoles,"[8]; in vivo, 0.3 %",11
same,def (deformed) tadpoles,"[8]; in vivo, 0.3 %",3
same,% body length of control,"[8]; in vivo, 0.4 %",90 ± 41%
same,% width between eyes of control,"[8]; in vivo, 0.4 %",81 ± 11 %
same,N (normal) tadpoles,"[8]; in vivo, 0.4 %",10
same,def (deformed) tadpoles,"[8]; in vivo, 0.4 %",4
same,% body length of control,"[8]; in vivo, 0.5 %",85 ± 57 %
same,% width between eyes of control,"[8]; in vivo, 0.5 %",75 ± 09 %
same,N (normal) tadpoles,"[8]; in vivo, 0.5 %",7
same,def (deformed) tadpoles,"[8]; in vivo, 0.5 %",6
same,% body length of control,"[8]; in vivo, 0.6 %",74 ± 34 %
same,% width between eyes of control,"[8]; in vivo, 0.6 %",70 ± 18 %
same,N (normal) tadpoles,"[8]; in vivo, 0.6 %",5
same,def (deformed) tadpoles,"[8]; in vivo, 0.6 %",9
same,% body length of control,"[8]; in vivo, 1 %",70 ± 39 %
same,% width between eyes of control,"[8]; in vivo, 1 %",69 ± 21 %
same,N (normal) tadpoles,"[8]; in vivo, 1 %",2
same,def (deformed) tadpoles,"[8]; in vivo, 1 %",10
same,% body length of control,"[8]; in vivo, 1.5 %",67 ± 51 %
same,% width between eyes of control,"[8]; in vivo, 1.5 %",67 ± 17 %
same,N (normal) tadpoles,"[8]; in vivo, 1.5 %",1
same,def (deformed) tadpoles,"[8]; in vivo, 1.5 %",10
same,% body length of control,"[8]; in vivo, 2 %",65 ± 58 %
same,% width between eyes of control,"[8]; in vivo, 2 %",67 ± 23 %
same,N (normal) tadpoles,"[8]; in vivo, 2 %",0
same,def (deformed) tadpoles,"[8]; in vivo, 2 %",9
same,effect on viability and morphology of the tadpoles,[8]; in vivo,no significant effect in either the viability or the morphology of the tadpoles
same,teratogenic effect,[8]; in vivo,resistant to the teratogenic effect of alcohol
same,mortality rate,[8]; stage 40 tadpoles exposed to 0.6% alcohol,80%
